Results reported in US20260297060A1, “COMPOUNDS FOR THE DEGRADATION OF MUTANT BRAF” (C4 THERAPEUTICS, INC., priority 2023, published 2026).
Where two headings read alike, the source gives them in different places.

Assays:
BRAF V600E = experiment: Pharmacodynamics of BRAF protein degradation in inoculated CNS tumors (Example 12); type: in vivo, human A375 CNS xenograft in mice; conditions: CNS tumor-bearing mice, after administration, versus encorafenib, FIG. 51
Procedure: FIG. 51 is a plot showing the pharmacodynamics of BRAF protein degradation in the inoculated CNS tumors. […] The experiment was conducted as described in Example 12.

[1] = Pharmacokinetics in female BALB/c nude mice bearing A375 xenografts, 1 day dosing (PK and PD study): plasma, tumor and brain concentrations, AUC; type: in vivo; conditions: for Mean Concentration in Brain ± SEM / Mean Concentration in Plasma ± SEM / Mean Concentration in Tumor ± SEM: BQL: below the lower limit of quantitation; for AUC at 24 h: read-out: Brain AUC at 24 hours, Average
Source text: The concentrations of Dabrafenib, Compound 26 and Compound 141 in the treatment of female BALB/c nude mice bearing A375 xenografts are shown in Table 62-Table 72 and FIG. 52-FIG. 73.

[2] = 1.5 mg/kg p.o. BID × 1 day, post 2nd dose, 48 h
[3] = 2 mg/kg p.o. TID × 1 day, post 3rd dose, 48 h
[4] = 3 mg/kg p.o. BID × 1 day, post 2nd dose, 36 h
[5] = mouse, brain, po, 1.5 mg/kg, 1.5 mg/kg p.o. BID × 1 day, post 2nd dose, read-out: Mean Concentration in Brain ± SEM
[6] = mouse, brain, po, 2 mg/kg, 2 mg/kg p.o. TID × 1 day, post 3rd dose, read-out: Mean Concentration in Brain ± SEM
[7] = mouse, brain, po, 3 mg/kg, 3 mg/kg p.o. BID × 1 day, post 2nd dose, read-out: Mean Concentration in Brain ± SEM
[8] = mouse, brain, po, 6 mg/kg, 6 mg/kg p.o. QD × 1 day, read-out: Mean Concentration in Brain ± SEM
[9] = mouse, brain, po, 10 mg/kg, 10 mg/kg p.o. BID × 1 day, post 2nd dose, read-out: Mean Concentration in Brain ± SEM
[10] = mouse, plasma, po, 1.5 mg/kg, 1.5 mg/kg p.o. BID × 1 day, post 1st dose, read-out: Mean Concentration in Plasma ± SEM
[11] = mouse, plasma, po, 1.5 mg/kg, 1.5 mg/kg p.o. BID × 1 day, post 2nd dose, read-out: Mean Concentration in Plasma ± SEM
[12] = mouse, plasma, po, 2 mg/kg, 2 mg/kg p.o. TID × 1 day, post 1st dose, read-out: Mean Concentration in Plasma ± SEM
[13] = mouse, plasma, po, 2 mg/kg, 2 mg/kg p.o. TID × 1 day, post 2nd dose, read-out: Mean Concentration in Plasma ± SEM
[14] = mouse, plasma, po, 2 mg/kg, 2 mg/kg p.o. TID × 1 day, post 3rd dose, read-out: Mean Concentration in Plasma ± SEM
[15] = mouse, plasma, po, 3 mg/kg, 3 mg/kg p.o. BID × 1 day, post 1st dose, read-out: Mean Concentration in Plasma ± SEM

CCN(C)S(=O)(=O)Nc1ccc(F)c(Oc2ccc3ncn([C@H]4COC5(CCN(C6CC7(C6)CN(c6cc8c(cc6F)c(N6CCC(=O)NC6=O)nn8C)C7)CC5)C4)c(=O)c3c2)c1C#N [Compound 26, (3R)-3-[6-[2-cyano-3-[[ethyl(methyl)sulfamoyl]amino]-6-fluoro-phenoxy]-4-oxo-quinazolin-3-yl]-8-[2-[3-(2,4-dioxohexahydropyrimidin-1-yl)-5-fluoro-1-methyl-indazol-6-yl]-2-azaspiro[3.3]heptan-6-yl]-1-oxa-8-azaspiro[4.5]decane]
BRAF V600E levels in the brain tumor compared with encorafenib (BRAF V600E): much lower | Mean Concentration in Brain ± SEM ([1]; 1.5 mg/kg p.o. BID × 1 day, post 2nd dose, 24 h): BQL^a | Mean Concentration in Brain ± SEM [1, 2]: BQL | Mean Concentration in Plasma ± SEM [1, 2]: BQL | Mean Concentration in Brain ± SEM ([1]; 2 mg/kg p.o. TID × 1 day, post 3rd dose, 24 h): BQL^a | Mean Concentration in Brain ± SEM [1, 3]: BQL | Mean Concentration in Plasma ± SEM [1, 3]: BQL | Mean Concentration in Tumor ± SEM [1, 3]: BQL | Mean Concentration in Brain ± SEM ([1]; 3 mg/kg p.o. BID × 1 day, post 2nd dose, 24 h): BQL^a | Mean Concentration in Brain ± SEM [1, 4]: BQL | Mean Concentration in Tumor ± SEM [1, 4]: BQL | Mean Concentration in Brain ± SEM ([1]; 3 mg/kg p.o. BID × 1 day, post 2nd dose, 48 h): BQL | Mean Concentration in Brain ± SEM ([1]; 6 mg/kg p.o. QD × 1 day, 24 h): BQL^a | Mean Concentration in Brain ± SEM ([1]; 6 mg/kg p.o. QD × 1 day, 48 h): BQL | Mean Concentration in Brain ± SEM ([1]; 10 mg/kg p.o. BID × 1 day, post 2nd dose, 24 h): BQL^a | Mean Concentration in Brain ± SEM ([1]; 10 mg/kg p.o. BID × 1 day, post 2nd dose, 48 h): BQL | concentration at 1 h [1, 5]: 25 ± 3.74 ng/g | concentration at 4 h [1, 5]: 21.8 ± 3.64 ng/g | concentration at 10 h [1, 5]: 9.78 ± 0.841 ng/g | concentration at 1 h [1, 6]: 66.5 ± 11.7 ng/g | concentration at 4 h [1, 6]: 26.9 ± 2.99 ng/g | concentration at 10 h [1, 6]: 23 ± 7.44 ng/g | concentration at 0.25 h [1, 7]: 29.7 ng/g | concentration at 0.5 h [1, 7]: 41 ± 4.05 ng/g | concentration at 1 h [1, 7]: 89.1 ± 25 ng/g | concentration at 2 h [1, 7]: 99.5 ± 11.9 ng/g | concentration at 4 h [1, 7]: 35.8 ± 6.52 ng/g | concentration at 10 h [1, 7]: 14.5 ± 0.737 ng/g | concentration at 1 h [1, 8]: 167 ± 27.6 ng/g | concentration at 4 h [1, 8]: 79.2 ± 21.8 ng/g | concentration at 10 h [1, 8]: 30.8 ± 8.11 ng/g | concentration at 1 h [1, 9]: 313 ± 41.7 ng/g | concentration at 4 h [1, 9]: 185 ± 18.2 ng/g | concentration at 10 h [1, 9]: 80.4 ± 8.59 ng/g | AUC at 24 h ([1]; mouse, brain, po, 1.5 mg/kg p.o. BID × 1 day): 233 ng·h/mL | AUC at 24 h ([1]; mouse, brain, po, 2 mg/kg p.o. TID × 1 day): 451 ng·h/mL | AUC at 24 h ([1]; mouse, brain, po, 3 mg/kg p.o. BID × 1 day): 522 ng·h/mL | AUC at 24 h ([1]; mouse, brain, po, 6 mg/kg p.o. QD × 1 day): 915 ng·h/mL | AUC at 24 h ([1]; mouse, brain, po, 10 mg/kg p.o. BID × 1 day): 2100 ng·h/mL | concentration at 0.25 h [1, 10]: 1180 ± 103 ng/mL | concentration at 0.5 h [1, 10]: 2620 ± 182 ng/mL | concentration at 1 h [1, 10]: 3790 ± 553 ng/mL | concentration at 2 h [1, 10]: 3090 ± 346 ng/mL | concentration at 4 h [1, 10]: 1110 ± 339 ng/mL | concentration at 8 h [1, 10]: 318 ± 78.2 ng/mL | concentration at 12 h ([1]; mouse, plasma, po, 1.5 mg/kg, 1.5 mg/kg p.o. BID × 1 day, post 1st dose, 12 h, read-out: Mean Concentration in Plasma ± SEM): 121 ± 6.74 ng/mL | concentration at 0.25 h [1, 11]: 629 ± 24.4 ng/mL | concentration at 0.5 h [1, 11]: 1580 ± 108 ng/mL | concentration at 1 h [1, 11]: 1820 ± 86.6 ng/mL | concentration at 2 h [1, 11]: 2930 ± 312 ng/mL | concentration at 4 h [1, 11]: 1740 ± 355 ng/mL | concentration at 10 h [1, 11]: 541 ± 95.8 ng/mL | concentration at 24 h ([1]; mouse, plasma, po, 1.5 mg/kg, 1.5 mg/kg p.o. BID × 1 day, post 2nd dose, 24 h, read-out: Mean Concentration in Plasma ± SEM): 4.74 ± 1.31 ng/mL | concentration at 36 h ([1]; mouse, plasma, po, 1.5 mg/kg, 1.5 mg/kg p.o. BID × 1 day, post 2nd dose, 36 h, read-out: Mean Concentration in Plasma ± SEM): 0.889 ng/mL | concentration at 0.25 h [1, 12]: 1600 ± 272 ng/mL | concentration at 0.5 h [1, 12]: 2880 ± 289 ng/mL | concentration at 1 h [1, 12]: 3720 ± 77.7 ng/mL | concentration at 2 h [1, 12]: 2930 ± 635 ng/mL | concentration at 4 h [1, 12]: 1420 ± 56.7 ng/mL | concentration at 8 h [1, 12]: 283 ± 80.3 ng/mL | concentration at 0.25 h [1, 13]: 1390 ± 84.1 ng/mL | concentration at 2 h [1, 13]: 2720 ± 466 ng/mL | concentration at 8 h [1, 13]: 580 ± 166 ng/mL | concentration at 0.25 h [1, 14]: 1090 ± 75.2 ng/mL | concentration at 0.5 h [1, 14]: 2630 ± 81.7 ng/mL | concentration at 1 h [1, 14]: 3780 ± 584 ng/mL | concentration at 2 h [1, 14]: 3680 ± 376 ng/mL | concentration at 4 h [1, 14]: 1770 ± 127 ng/mL | concentration at 10 h [1, 14]: 1250 ± 411 ng/mL | concentration at 24 h ([1]; mouse, plasma, po, 2 mg/kg, 2 mg/kg p.o. TID × 1 day, post 3rd dose, 24 h, read-out: Mean Concentration in Plasma ± SEM): 9.4 ± 3.31 ng/mL | concentration at 36 h ([1]; mouse, plasma, po, 2 mg/kg, 2 mg/kg p.o. TID × 1 day, post 3rd dose, 36 h, read-out: Mean Concentration in Plasma ± SEM): 1.45 ng/mL | concentration at 0.25 h [1, 15]: 3010 ± 401 ng/mL | concentration at 0.5 h [1, 15]: 8140 ± 2030 ng/mL | concentration at 1 h [1, 15]: 7840 ± 1330 ng/mL | concentration at 2 h [1, 15]: 6910 ± 1450 ng/mL
